Assay: gradient 5% acetonitrile 3 min, to 50% in 2 min, to 85% in 15 min, held 3 min, 100 µL/min
Details: column: Zorbax Extend-C18 2.1 x 50 mm; eluents: water / acetonitrile, 0.1% formic acid
Method in brief: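 Standards, all pure, were combined into mixtures of ~100 molecules and run at 100 μL/min on a Zorbax Extend-C18 column (2.1 × 50 mm, 1.8 μm) with water and acetonitrile, each containing 0.1% formic acid. A coupled quadrupole time-of-flight mass spectrometer operated in positive and negative ionization mode. Retention time values come from computationally picked adduct peaks, each inspected manually.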

Compound	RP-LC retention time [s]
COc1cccc(-c2cc(N3CCN(C(=O)NC(C)C)CC3)ncn2)c1	612
CN1C2CCC1CC(NC(=O)c1nn(C)c3ccccc13)C2 (stereo not drawn)	655
Cc1cc2c(cc1S(=O)(=O)N1CCCC1C(=O)NCCc1ccccc1)OC(C)C(=O)N2 (stereo not drawn)	792
CCCC(=O)Nc1cc2c(cc1S(=O)(=O)c1ccccc1)n(CC)c(=O)n2CC	883
CO[C@@H]1C(O)[C@H](O[C@H]2CC[C@@]3(C=O)[C@H](CC[C@@H]4[C@@H]3CC[C@]3(C)[C@@H](C5=CC(=O)OC5)CC[C@]43O)C2)OC(C)[C@@H]1O (stereo partly drawn)	772
COc1ccc(C(=O)N2CCC3(C2)C(=O)Nc2ccc(OC)cc23)cc1 (stereo not drawn)	683
CCOC(=O)C1C(=O)C(C(=O)OCC)C(c2ccccc2)NC1c1ccccc1 (stereo not drawn)	832
CCNC(=O)c1ccc2c(c1)CCCN2S(=O)(=O)CC	709
Cc1ccc2c(Nc3ccc4c(c3)OCCO4)c(C(=O)N3CCCC3)cnc2n1	592
COCc1noc(CC2CCOC3(CCN(C(=O)C4(c5ccccc5)CC4)CC3)C2)n1 (stereo not drawn)	820
CCn1c(C)c(CN2CCC(C(=O)N3CCN(c4ccccc4F)CC3)CC2)c2ccccc21	729
Cc1cccc(-n2c(N3CCCC(C(=O)NCc4cccs4)C3)nc3ccsc3c2=O)c1 (stereo not drawn)	876
O=C(C1CCN(c2ncnc3c2oc2ccccc23)CC1)N1CCCC1	654
COc1ccc(-c2nnc(N3CCC(C(=O)NCCN4CCCC4)CC3)o2)cc1	590
COC(=O)C1=CN(c2ccc(Br)cc2)c2cc(F)ccc2S1(=O)=O	939
Cc1ccc(-n2nnc(-c3noc(C)n3)c2C)cc1	836
CCn1nc(-c2nc(-c3ccc(Cl)cc3)no2)ccc1=O	1030
CC(NC(=O)Cn1cc(C(=O)C(=O)N2CCCC2)c2ccccc21)c1ccc2c(c1)OCCCO2 (stereo not drawn)	815
CCc1ccc(-c2nc(-c3ccc4nnn(C)c4c3)no2)cc1	1150
O=C(Cn1nc2c(Oc3ccc(Cl)cc3)nccn2c1=O)NC1CCCC1	810
CCn1nc(C)c(CCN(C)C(=O)Nc2ccccc2C(=O)OC)c1C	744
COCCN1C(=O)[C@H]2CN(Cc3ccc(OC)c(Br)c3)C[C@H]2C1=O	616

Compound	RP-LC retention time [s]
N#Cc1cccc(-c2cn3c(n2)N(C(=O)c2cccnc2)CCC3)c1	641
Cc1ccc(CNC(=O)c2cc3sccc3n2Cc2ccc(Cl)cc2)cc1	1200
CCN(C(=O)c1ccc(OC)c(OC)c1)c1nc(-c2ccc(Br)cc2)cs1	1270
CCC[C@@H]1C[C@@H](C(=O)N[C@@H]([C@H]2O[C@H](SC)[C@H](O)[C@@H](O)[C@@H]2O)[C@@H](C)O)N(C)C1	595
Cc1ccc(CN2CC(=O)N(c3ccccc3)[C@@H]3CS(=O)(=O)C[C@@H]32)cc1	800
CN1C(=O)c2ccccc2Oc2ccc(C(=O)N3CCOCC3)cc21	675
Cc1ccc(C)c(N2CCN(c3ccnc(SCC(=O)Nc4cc(Cl)ccc4C)n3)CC2)c1	952
CCCCOc1ccc(S(=O)(=O)Nc2ccc(-c3cn4ccc(C)nc4n3)cc2)cc1	776
CCOc1ccc(-c2nc(NC(=O)c3ccccc3[N+](=O)[O-])sc2C)cc1	1050
Cc1ncoc1C(=O)NCC1Cn2cccc2C(=O)N1C (stereo not drawn)	583
CNC(=O)c1ccccc1Nc1cc(Nc2ccc(N3CCOCC3)cc2OC)ncc1C(F)(F)F	764
Cc1ccc(N2CN(CCC(C)C)S(=O)(=O)c3cccnc32)cc1	1150
CCOc1cccc(-c2noc(CN3C(=O)COc4cc(C)ccc43)n2)c1	1130
Cc1ccc2nc(-c3cccnc3)cc(C(=O)Nc3nc(-c4ccccc4)c(C)s3)c2c1	1070
COc1ccc(-n2/c(=N/C(=S)N(C)C)ss/c2=N\C(=S)N(C)C)cc1	1210
CSc1cccc(NC(=O)N2CCCC2c2nc(-c3cccc(C)c3)no2)c1 (stereo not drawn)	1080
CCCC(=O)NC1CCN(c2cc(C)cc(C)c2)C1=O (stereo not drawn)	750
O=C(Cc1c(F)cccc1Cl)Nc1nc(-c2ccccc2)cs1	1040
CC(C)NC(=O)N1CCOc2ccc(CCC(=O)O)cc2C1	671
NC(=O)c1cc(-c2ccccc2F)nc2ccccc12	740
COCCCN1C(=O)c2cc(-c3ccc(OC)cc3)nn2CC1(C)C(=O)NCc1ccccc1 (stereo not drawn)	826
Nc1cc(C2CCN(C(=O)c3cccnc3)CC2)no1	554

Compound	RP-LC retention time [s]
Cc1cccc(CNC(=O)c2ccc3c(c2)CC(=O)N3C)c1	742
COc1cc(Nc2ncc(F)c(Nc3ccc4c(n3)N(COP(=O)(O)O)C(=O)C(C)(C)O4)n2)cc(OC)c1OC	653
CC(C(=O)N1CCC(N2CCc3ccccc32)CC1)c1ccccc1 (stereo not drawn)	1010
CCCCNC(=O)CCC(=O)Nc1ccc2nc(N3CCN(C)CC3)cc(C)c2c1	520
CN(C)c1ccc(-c2noc(-c3nc(-c4ccccc4F)no3)n2)cc1	1250
O=C(CC1CCCCC1)N1CCC(F)(C(=O)N2CCCC2)CC1	806
CCCCN1C(=O)C(CC(=O)NCC(C)C)Sc2ncccc21 (stereo not drawn)	784
COCCNC(=O)C1CCN(C(=O)c2cccn2-c2cccnc2)CC1	578
CC(C)NC(=O)C1CCCN(c2nc3ncn(CC(=O)NCc4ccc(F)cc4)c(=O)c3s2)C1 (stereo not drawn)	689
COc1ccc(C(=O)NCc2nc3ccccc3[nH]2)cc1	555
CCc1ccc(NC(=O)N2CCc3nc[nH]c3C2)cc1	612
CCCC(=O)Nc1ccc2c(c1)CN(C(=O)C1CC1)C(C(=O)N(C)C)C2 (stereo not drawn)	709
CCc1ccc(-c2ccc(-n3nc(C)c(S(=O)(=O)N4CCC(C)CC4)c3C)nn2)cc1	1350
CCN(C(=O)CN1C(=O)NC(c2ccc(C)cc2)C2=C1COC2=O)c1cccc(C)c1 (stereo not drawn)	817
CN1CCCc2cc(C(=O)NCc3cccc(F)c3)sc21	915
COc1ccc(NS(=O)(=O)c2cc3n(c2)CCN(C(C)C)C3=O)cc1Cl	775
CCn1nccc1-c1nc(C2CC(=O)N(c3ccc(C)cc3)C2)no1 (stereo not drawn)	680
COc1cccc(CNC(=O)C2CCCN(c3nn4c(=O)c5c(nc4s3)CCCC5)C2)c1 (stereo not drawn)	737
Cc1ccc(Cc2nc(CCNC(=O)C3CCN(S(=O)(=O)c4ccc(C)cc4)CC3)n[nH]2)cc1	769
Cc1ccc(C)c(NS(=O)(=O)c2cc(-c3[nH]ncc3C(=O)N(C)C)oc2C)c1	700
CCCc1cc(SCC(=O)Nc2nccs2)ncn1	692
CC1=C(c2ccc(C)cc2)S(=O)(=O)N=C1N1CCCN(C(=O)c2ccccn2)CC1	758

Compound	RP-LC retention time [s]
COc1ccc(NC(=O)C2CCN(S(=O)(=O)c3cc(-c4noc(C)n4)cs3)CC2)cc1Cl	946
CCN1CCC2(CC1)N=C(c1ccccc1)CC(c1cc(Cl)ccc1O)N2 (stereo not drawn)	621
CC(=O)Oc1ccc2c(=O)c(Oc3ccc([N+](=O)[O-])cc3)c(C)oc2c1	854
Cc1nc2c(-c3ccc(F)cc3)c(C)nn2c(C)c1CCC(=O)N1CCN(c2ccccn2)CC1	682
Cc1cc2[nH]c(C(=O)Nc3cccc(F)c3C)c(CN3CCOCC3)c2s1	731
CCC(C)C(NC(=O)c1ccc(C(F)(F)F)cc1)C(=O)Nc1nc2ccccc2[nH]1 (stereo not drawn)	847
Cc1cccc(NC(=O)Cn2c(=O)c3cc(C4CC4)nn3c3ncccc32)c1	789
Cc1ccc(S(=O)(=O)N2CCC(n3cnc4ccc(C)cc4c3=O)CC2)cc1	925
COc1ccc(CCC(=O)Nc2cc(-c3cccnc3)no2)cc1	756
O=C(Nc1nc(-c2ccncc2)cs1)C1CCCCC1	588
CNC(=O)C1Cc2ccccc2CN1S(=O)(=O)c1ccc(OC)cc1 (stereo not drawn)	770
CC(=O)Nc1ccc(NC(=O)Cn2cccc(-c3nc(-c4ccc(Cl)cc4)no3)c2=O)cc1	937
CCn1ccc2c(cc(C(=O)Nc3ccc(OC)cc3)n2C)c1=O	706
Cc1ccc(-c2cc(C(=O)NC(C)C)n(C)c2)cc1	977
O=C(CN1C(=O)C2CCCCN2c2ccc(C(=O)N3CCCC3)cc21)Nc1ccc2c(c1)OCO2 (stereo not drawn)	794
Cc1noc(COC2CCN(C(=O)c3ccc4ccccc4n3)CC2)n1	707
CCCN1C(=O)c2cc(S(=O)(=O)Nc3ccc(F)c(F)c3)ccc2Oc2cccnc21	1100
C=CCNc1c(C(=O)OC)c(=O)[nH]c2c(Cl)cccc12	700
COC(=O)c1c(C)[nH]c(C(=O)N2CCCC(C(=O)NC3CC3)C2)c1C (stereo not drawn)	627
COC(=O)c1cccc(NC(=O)c2cnc(-c3ccc(F)cc3)nc2-c2ccncc2)c1	912
Cc1nc(-c2ccc3c(c2)n(CC(=O)NC2CCCCCCC2)c(=O)n3C(C)C)no1	945
CCn1cc(CCNC(=O)Nc2cccc(Cl)c2)c2cccnc21	788

From the METLIN SMRT retention time set (Domingo-Almenara et al. 2019)
